Laboratory results taken from PubChem BioAssay (NCI).
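These data come from cells grown in 96-well plates and exposed to compound for 48 hours at five concentrations. GI50 is the concentration that inhibits growth by half. The concentration for full growth arrest is given as TGI.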

Assays:
Experiment in all cases: NCI tumour cell line growth inhibition, 48 h
CAKI-1 renal = system: CAKI-1 renal
A549 NSCLC = system: A549 NSCLC
SW-620 colon = system: SW-620 colon
KM12 colon = system: KM12 colon
NCI-H460 lung = system: NCI-H460 lung
MALME-3M melanoma = system: MALME-3M melanoma
ACHN renal = system: ACHN renal
MOLT-4 leukemia = system: MOLT-4 leukemia
NCI-H226 lung = system: NCI-H226 lung

`CC1(C)Cc2nnsc2C2=C1C(=O)CCS2` showed a TGI (CAKI-1 renal) greater than 100 µM, a TGI (A549 NSCLC) greater than 100 µM and a TGI (SW-620 colon) greater than 100 µM. The TGI (KM12 colon) was greater than 100 µM, the TGI (NCI-H460 lung) was greater than 100 µM and the TGI (MALME-3M melanoma) was greater than 100 µM. The TGI (ACHN renal) was greater than 100 µM and the TGI (MOLT-4 leukemia) was greater than 100 µM.
`C[CH2][Ge]([CH2]C)([CH2]C)[O]C(=O)C([O][Ge]([CH2]C)([CH2]C)[CH2]C)c1ccccc1` (stereo unspecified) was tested, and the GI50 (CAKI-1 renal) was 19.2 µM, the TGI (CAKI-1 renal) was 44.9 µM and the GI50 (A549 NSCLC) was 12.7 µM. The TGI (A549 NSCLC) was 56.4 µM, the GI50 (SW-620 colon) was 18.9 µM and the TGI (SW-620 colon) was 42.2 µM. The GI50 (KM12 colon) was 11.9 µM, the TGI (KM12 colon) was 26.1 µM and the GI50 (NCI-H460 lung) was 16.3 µM. For the same compound, the TGI (NCI-H460 lung) was greater than 100 µM, the GI50 (MALME-3M melanoma) was 16.8 µM and the TGI (MALME-3M melanoma) was greater than 100 µM. For the same compound, the GI50 (ACHN renal) was 15 µM, the TGI (ACHN renal) was 51.3 µM and the GI50 (MOLT-4 leukemia) was 23.8 µM. The TGI (MOLT-4 leukemia) was greater than 100 µM, the GI50 (NCI-H226 lung) was 25.7 µM and the TGI (NCI-H226 lung) was 88 µM.
Compound `O=C(Nc1cc(C(F)(F)F)cc(C(F)(F)F)c1)Nc1ccc(OCc2nnc(-c3ccc(Cl)cc3)o2)c(F)c1` has a GI50 (CAKI-1 renal) of 2.72 µM, a TGI (CAKI-1 renal) of 15.8 µM and a GI50 (A549 NSCLC) of 1.97 µM. For the same compound, the TGI (A549 NSCLC) was 9.44 µM, the GI50 (SW-620 colon) was 2.66 µM and the TGI (SW-620 colon) was 12.3 µM. It also gave a GI50 (KM12 colon) of 1 µM, a TGI (KM12 colon) of 5.72 µM and a GI50 (NCI-H460 lung) of 2 µM. The TGI (NCI-H460 lung) was 7.65 µM, the GI50 (MALME-3M melanoma) was 2.3 µM and the TGI (MALME-3M melanoma) was 6.27 µM. It also gave a GI50 (ACHN renal) of 0.873 µM, a TGI (ACHN renal) of 9.2 µM and a GI50 (MOLT-4 leukemia) of 2.72 µM. For the same compound, the TGI (MOLT-4 leukemia) was 12 µM, the GI50 (NCI-H226 lung) was 2.93 µM and the TGI (NCI-H226 lung) was 12.5 µM.
`COC(=O)c1ccc(NC(N)=NCC(C)(C)COc2ccc(C(F)(F)F)cc2)nc1` showed a GI50 (A549 NSCLC) of 1.63 µM, a TGI (A549 NSCLC) of 3.17 µM and a GI50 (NCI-H460 lung) of 1.67 µM. For the same compound, the TGI (NCI-H460 lung) was 3.36 µM, the GI50 (MALME-3M melanoma) was 1.72 µM and the TGI (MALME-3M melanoma) was 3.48 µM. For the same compound, the GI50 (ACHN renal) was 1.59 µM and the TGI (ACHN renal) was 2.93 µM.
`CN(C)CCC(/C=C/c1ccccc1)=N\Nc1ccc(Cl)cc1` showed a TGI (A549 NSCLC) of 7.34 µM, a TGI (SW-620 colon) of 14.7 µM and a TGI (KM12 colon) of 10.9 µM. The TGI (NCI-H460 lung) was 4.29 µM, the TGI (MALME-3M melanoma) was 26.2 µM and the TGI (ACHN renal) was 5.15 µM. The TGI (MOLT-4 leukemia) was 5.43 µM.
For `Cc1cc(Cl)ccc1N1C(=O)C(=O)C(c2nc3ccccc3o2)C(=O)C1=O`, the TGI (CAKI-1 renal) was greater than 100 µM, the TGI (A549 NSCLC) was greater than 100 µM and the TGI (SW-620 colon) was greater than 100 µM. It also gave a TGI (KM12 colon) greater than 100 µM, a TGI (NCI-H460 lung) greater than 100 µM and a TGI (MALME-3M melanoma) greater than 100 µM. The TGI (ACHN renal) was greater than 100 µM, the TGI (MOLT-4 leukemia) was greater than 100 µM and the TGI (NCI-H226 lung) was greater than 100 µM.
`Cc1cc(Cl)cc2c1NC(=O)C2(O)CC(=O)c1ccc(F)cc1` (stereo unspecified) was tested, and the TGI (CAKI-1 renal) was greater than 100 µM, the TGI (A549 NSCLC) was 81.1 µM and the TGI (SW-620 colon) was greater than 100 µM. The TGI (KM12 colon) was greater than 100 µM, the TGI (NCI-H460 lung) was greater than 100 µM and the TGI (MALME-3M melanoma) was 75.1 µM. For the same compound, the TGI (ACHN renal) was greater than 100 µM and the TGI (NCI-H226 lung) was greater than 100 µM.
With `CN(C)CCC(=O)N1CCc2c([nH]c3ccccc23)C1c1cccnc1` (stereo unspecified) the TGI (CAKI-1 renal) was greater than 100 µM, the TGI (A549 NSCLC) was greater than 100 µM and the TGI (SW-620 colon) was greater than 100 µM. For the same compound, the TGI (KM12 colon) was greater than 100 µM, the TGI (NCI-H460 lung) was greater than 100 µM and the TGI (ACHN renal) was greater than 100 µM. For the same compound, the TGI (MOLT-4 leukemia) was greater than 100 µM.
With `Cc1nc2ccccc2c(/C=C/c2ccccc2)c1C(=O)/C=C/c1ccc(Cl)cc1` the GI50 (SW-620 colon) was 1.71 µM, the TGI (SW-620 colon) was 5.72 µM and the GI50 (KM12 colon) was 1.86 µM. The TGI (KM12 colon) was 4.78 µM, the GI50 (NCI-H460 lung) was 1.51 µM and the TGI (NCI-H460 lung) was 3.29 µM. It also gave a GI50 (MOLT-4 leukemia) of 1.09 µM and a TGI (MOLT-4 leukemia) of 6.49 µM.
Compound `COc1ccc(C(=O)C/C(=N/NC(N)=S)C(=O)Nc2ccccc2)cc1` has a TGI (CAKI-1 renal) greater than 100 µM, a TGI (A549 NSCLC) greater than 100 µM and a TGI (SW-620 colon) greater than 100 µM. The TGI (KM12 colon) was greater than 100 µM, the TGI (NCI-H460 lung) was greater than 100 µM and the TGI (MALME-3M melanoma) was greater than 100 µM. The TGI (ACHN renal) was greater than 100 µM, the TGI (MOLT-4 leukemia) was greater than 100 µM and the TGI (NCI-H226 lung) was greater than 100 µM.
Compound `NC1=NCC(c2ccccn2)C1c1ccc(F)cc1` (stereo unspecified) has a TGI (CAKI-1 renal) greater than 100 µM, a TGI (A549 NSCLC) greater than 100 µM and a TGI (SW-620 colon) greater than 100 µM. The TGI (KM12 colon) was greater than 100 µM, the TGI (NCI-H460 lung) was greater than 100 µM and the TGI (MALME-3M melanoma) was greater than 100 µM. For the same compound, the TGI (ACHN renal) was greater than 100 µM, the TGI (MOLT-4 leukemia) was greater than 100 µM and the TGI (NCI-H226 lung) was greater than 100 µM.
Work on `CCP(C)(C)=O` yielded a TGI (CAKI-1 renal) greater than 100 µM, a TGI (A549 NSCLC) greater than 100 µM and a TGI (SW-620 colon) greater than 100 µM. For the same compound, the TGI (KM12 colon) was greater than 100 µM, the TGI (NCI-H460 lung) was greater than 100 µM and the TGI (MALME-3M melanoma) was greater than 100 µM. It also gave a TGI (ACHN renal) greater than 100 µM and a TGI (MOLT-4 leukemia) greater than 100 µM.
`NC(=NCCO)c1ccc(N2CCCN(c3ccc(C(N)=NCCO)cc3)CC2)cc1` showed a GI50 (CAKI-1 renal) greater than 100 µM, a TGI (CAKI-1 renal) greater than 100 µM and a GI50 (A549 NSCLC) of 98.3 µM. The TGI (A549 NSCLC) was greater than 100 µM, the GI50 (KM12 colon) was greater than 100 µM and the TGI (KM12 colon) was greater than 100 µM. For the same compound, the GI50 (MALME-3M melanoma) was 72.9 µM, the TGI (MALME-3M melanoma) was greater than 100 µM and the GI50 (ACHN renal) was greater than 100 µM. The TGI (ACHN renal) was greater than 100 µM, the GI50 (NCI-H226 lung) was greater than 100 µM and the TGI (NCI-H226 lung) was greater than 100 µM.
`COc1ccc(C2N3CCCCC3[C@@H]3c4[nH]c5ccccc5c4CCN23)c(OC)c1` (stereo partly specified) gave a TGI (CAKI-1 renal) greater than 100 µM, a TGI (A549 NSCLC) greater than 100 µM and a TGI (SW-620 colon) greater than 100 µM. It also gave a TGI (NCI-H460 lung) of 50.2 µM, a TGI (ACHN renal) of 55.2 µM and a TGI (MOLT-4 leukemia) of 49.9 µM.
In the case of `Cc1ccccc1NC(=O)C(=O)CC(=O)C1CCOC1=O` (stereo unspecified), the TGI (CAKI-1 renal) was greater than 100 µM, the TGI (A549 NSCLC) was greater than 100 µM and the TGI (SW-620 colon) was greater than 100 µM. The TGI (KM12 colon) was greater than 100 µM, the TGI (NCI-H460 lung) was greater than 100 µM and the TGI (MALME-3M melanoma) was greater than 100 µM. The TGI (ACHN renal) was greater than 100 µM and the TGI (NCI-H226 lung) was greater than 100 µM.
`CCOC(=O)N1CCc2cc(OC)c(OC)cc2/C1=C/c1ccc(OC)c(OC)c1` showed a TGI (A549 NSCLC) greater than 100 µM, a TGI (SW-620 colon) greater than 100 µM and a TGI (KM12 colon) greater than 100 µM. For the same compound, the TGI (MALME-3M melanoma) was 67.6 µM, the TGI (ACHN renal) was greater than 100 µM and the TGI (MOLT-4 leukemia) was greater than 100 µM. The TGI (NCI-H226 lung) was greater than 100 µM.
With `Cc1cccc2cc3cccc(C(=O)NCCN(C)C)c3nc12` the TGI (CAKI-1 renal) was 0.327 µM, the TGI (SW-620 colon) was 10.5 µM and the TGI (KM12 colon) was 6.12 µM. The TGI (NCI-H460 lung) was 0.312 µM, the TGI (MALME-3M melanoma) was 1.11 µM and the TGI (MOLT-4 leukemia) was 0.344 µM. For the same compound, the TGI (NCI-H226 lung) was 0.343 µM.
In the case of `C/C=C/C=C/CCCCCCCCCCCCC[C@]1(OC)C=CC(CC(=O)OC)OO1` (stereo partly specified), the GI50 (CAKI-1 renal) was 17.1 µM, the TGI (CAKI-1 renal) was 31.1 µM and the GI50 (A549 NSCLC) was 35 µM. The TGI (A549 NSCLC) was greater than 100 µM, the GI50 (SW-620 colon) was 16.7 µM and the TGI (SW-620 colon) was 33 µM. It also gave a GI50 (KM12 colon) of 17.9 µM, a TGI (KM12 colon) of 36.3 µM and a TGI (NCI-H460 lung) of 46.8 µM. For the same compound, the TGI (MALME-3M melanoma) was 77.5 µM, the GI50 (ACHN renal) was 16.6 µM and the TGI (ACHN renal) was 31.4 µM. The GI50 (MOLT-4 leukemia) was 19.9 µM and the TGI (MOLT-4 leukemia) was 48.7 µM.
